Data reported in PMC8429728, “TNK1 is a ubiquitin-binding and 14-3-3-regulated kinase that can be targeted to block tumor growth” (Nature Communications, 2021).
Like-named read-outs stand apart in the source and are kept apart here.

Experiments:
Assay in all cases: biochemical
Design in all cases: Reaction Biology 371-kinase panel at Km ATP, per cent enzyme activity relative to DMSO, single dose in duplicate
Details in all cases: duplicate measurements, Km ATP
[1] = target: FLT1/VEGFR1 (Homo sapiens, UniProt P17948)
How it was run: (§1)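 Compound screened at 300 nM in vitro across a 371-kinase panel. Enzyme activity expressed as % of DMSO controls. IC50 values came from sigmoidal variable-slope dose-response fits with the bottom fixed at 0.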

[2] = target: PRKX (Homo sapiens, UniProt P51817)
How it was run: as §1

[3] = target: Haspin (Homo sapiens, UniProt Q8TF76)
How it was run: as §1

[4] = target: DMPK (Homo sapiens, UniProt Q09013)
How it was run: as §1

[5] = target: DAPK2 (Homo sapiens, UniProt Q9UIK4)
How it was run: as §1

[6] = target: NEK2 (Homo sapiens, UniProt P51955)
How it was run: as §1

[7] = target: TSSK3/STK22C (Homo sapiens, UniProt Q96PN8)
How it was run: as §1

[8] = target: PHKg1 (Homo sapiens, UniProt Q16816)
How it was run: as §1

[9] = target: CDK16/cyclin Y (PCTAIRE) (Homo sapiens, UniProt Q00536)
How it was run: as §1

[10] = target: PKCnu/PRKD3 (Homo sapiens, UniProt O94806)
How it was run: as §1

[11] = target: ZIPK/DAPK3 (Homo sapiens, UniProt O43293)
How it was run: as §1

[12] = target: T1, LCK2/ICK (Homo sapiens, UniProt Q9UPZ9)
T1 construct: gene CILK1
How it was run: as §1

[13] = target: IRAK4 (Homo sapiens, UniProt Q9NWZ3)
How it was run: as §1

[14] = target: CDK9/CYCLIN K (Homo sapiens, UniProt P50750)
How it was run: as §1

[15] = target: GSK3a (Homo sapiens, UniProt P49840)
How it was run: as §1

[16] = target: FYN (Homo sapiens, UniProt P06241)
How it was run: as §1

[17] = target: CDK2/cyclin A (Homo sapiens, UniProt P24941)
How it was run: as §1

[18] = target: STK25/YSK1 (Homo sapiens, UniProt O00506)
How it was run: as §1

[19] = target: LRRK2 (Homo sapiens, UniProt Q5S007)
How it was run: as §1

[20] = target: ERBB2/HER2 (Homo sapiens, UniProt P04626)
How it was run: as §1

[21] = read-out: % Enzyme Activity (relative to DMSO controls) / TP-0005801 (0.3µM) / Data 1
[22] = read-out: % Enzyme Activity (relative to DMSO controls) / TP-0005801 (0.3µM) / Data 2

ERBB2/HER2, sequence (P04626 whole entry): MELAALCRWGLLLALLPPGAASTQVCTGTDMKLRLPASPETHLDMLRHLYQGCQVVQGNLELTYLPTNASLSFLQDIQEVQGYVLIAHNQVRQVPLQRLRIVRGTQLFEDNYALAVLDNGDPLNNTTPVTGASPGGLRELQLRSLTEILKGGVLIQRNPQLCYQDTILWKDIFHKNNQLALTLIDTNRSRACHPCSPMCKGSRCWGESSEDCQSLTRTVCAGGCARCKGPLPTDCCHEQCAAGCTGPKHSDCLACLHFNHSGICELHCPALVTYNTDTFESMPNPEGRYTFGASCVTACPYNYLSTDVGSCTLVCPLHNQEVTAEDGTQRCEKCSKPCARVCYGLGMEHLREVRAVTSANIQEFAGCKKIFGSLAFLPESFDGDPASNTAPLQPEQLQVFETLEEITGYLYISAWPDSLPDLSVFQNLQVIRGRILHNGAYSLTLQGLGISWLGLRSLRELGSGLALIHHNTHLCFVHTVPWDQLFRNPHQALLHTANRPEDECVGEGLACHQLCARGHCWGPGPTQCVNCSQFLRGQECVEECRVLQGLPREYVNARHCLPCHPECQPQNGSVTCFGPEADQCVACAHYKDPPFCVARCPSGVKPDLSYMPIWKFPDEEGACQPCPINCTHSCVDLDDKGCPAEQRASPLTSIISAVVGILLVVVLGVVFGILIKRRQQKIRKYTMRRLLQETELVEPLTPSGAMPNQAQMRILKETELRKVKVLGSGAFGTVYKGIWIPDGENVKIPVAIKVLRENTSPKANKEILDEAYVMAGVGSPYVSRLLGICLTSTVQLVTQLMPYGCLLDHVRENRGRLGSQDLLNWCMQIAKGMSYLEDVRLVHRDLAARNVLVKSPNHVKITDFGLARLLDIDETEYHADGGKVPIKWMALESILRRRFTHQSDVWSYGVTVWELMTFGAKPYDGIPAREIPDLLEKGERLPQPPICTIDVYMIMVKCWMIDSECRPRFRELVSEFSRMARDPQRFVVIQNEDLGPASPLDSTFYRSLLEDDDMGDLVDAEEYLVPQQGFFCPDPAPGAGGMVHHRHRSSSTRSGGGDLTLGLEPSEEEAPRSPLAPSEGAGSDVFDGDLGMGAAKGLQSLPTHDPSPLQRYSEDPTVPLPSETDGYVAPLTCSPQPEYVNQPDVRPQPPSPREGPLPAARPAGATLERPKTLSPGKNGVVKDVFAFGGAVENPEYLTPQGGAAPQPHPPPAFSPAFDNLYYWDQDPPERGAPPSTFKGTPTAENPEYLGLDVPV
GSK3a, sequence (P49840 whole entry): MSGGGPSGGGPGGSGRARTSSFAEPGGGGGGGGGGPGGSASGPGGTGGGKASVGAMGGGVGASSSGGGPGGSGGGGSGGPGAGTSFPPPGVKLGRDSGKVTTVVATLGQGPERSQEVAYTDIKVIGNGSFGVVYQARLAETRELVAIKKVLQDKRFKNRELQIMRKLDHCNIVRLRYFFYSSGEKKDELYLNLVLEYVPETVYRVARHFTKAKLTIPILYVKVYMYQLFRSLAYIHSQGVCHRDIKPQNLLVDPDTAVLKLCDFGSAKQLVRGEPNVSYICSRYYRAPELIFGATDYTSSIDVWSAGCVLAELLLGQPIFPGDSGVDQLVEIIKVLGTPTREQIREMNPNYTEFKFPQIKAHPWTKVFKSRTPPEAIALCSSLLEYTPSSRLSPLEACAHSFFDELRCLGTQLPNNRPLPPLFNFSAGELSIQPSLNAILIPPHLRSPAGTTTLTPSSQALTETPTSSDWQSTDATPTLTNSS
LRRK2, sequence (Q5S007 whole entry): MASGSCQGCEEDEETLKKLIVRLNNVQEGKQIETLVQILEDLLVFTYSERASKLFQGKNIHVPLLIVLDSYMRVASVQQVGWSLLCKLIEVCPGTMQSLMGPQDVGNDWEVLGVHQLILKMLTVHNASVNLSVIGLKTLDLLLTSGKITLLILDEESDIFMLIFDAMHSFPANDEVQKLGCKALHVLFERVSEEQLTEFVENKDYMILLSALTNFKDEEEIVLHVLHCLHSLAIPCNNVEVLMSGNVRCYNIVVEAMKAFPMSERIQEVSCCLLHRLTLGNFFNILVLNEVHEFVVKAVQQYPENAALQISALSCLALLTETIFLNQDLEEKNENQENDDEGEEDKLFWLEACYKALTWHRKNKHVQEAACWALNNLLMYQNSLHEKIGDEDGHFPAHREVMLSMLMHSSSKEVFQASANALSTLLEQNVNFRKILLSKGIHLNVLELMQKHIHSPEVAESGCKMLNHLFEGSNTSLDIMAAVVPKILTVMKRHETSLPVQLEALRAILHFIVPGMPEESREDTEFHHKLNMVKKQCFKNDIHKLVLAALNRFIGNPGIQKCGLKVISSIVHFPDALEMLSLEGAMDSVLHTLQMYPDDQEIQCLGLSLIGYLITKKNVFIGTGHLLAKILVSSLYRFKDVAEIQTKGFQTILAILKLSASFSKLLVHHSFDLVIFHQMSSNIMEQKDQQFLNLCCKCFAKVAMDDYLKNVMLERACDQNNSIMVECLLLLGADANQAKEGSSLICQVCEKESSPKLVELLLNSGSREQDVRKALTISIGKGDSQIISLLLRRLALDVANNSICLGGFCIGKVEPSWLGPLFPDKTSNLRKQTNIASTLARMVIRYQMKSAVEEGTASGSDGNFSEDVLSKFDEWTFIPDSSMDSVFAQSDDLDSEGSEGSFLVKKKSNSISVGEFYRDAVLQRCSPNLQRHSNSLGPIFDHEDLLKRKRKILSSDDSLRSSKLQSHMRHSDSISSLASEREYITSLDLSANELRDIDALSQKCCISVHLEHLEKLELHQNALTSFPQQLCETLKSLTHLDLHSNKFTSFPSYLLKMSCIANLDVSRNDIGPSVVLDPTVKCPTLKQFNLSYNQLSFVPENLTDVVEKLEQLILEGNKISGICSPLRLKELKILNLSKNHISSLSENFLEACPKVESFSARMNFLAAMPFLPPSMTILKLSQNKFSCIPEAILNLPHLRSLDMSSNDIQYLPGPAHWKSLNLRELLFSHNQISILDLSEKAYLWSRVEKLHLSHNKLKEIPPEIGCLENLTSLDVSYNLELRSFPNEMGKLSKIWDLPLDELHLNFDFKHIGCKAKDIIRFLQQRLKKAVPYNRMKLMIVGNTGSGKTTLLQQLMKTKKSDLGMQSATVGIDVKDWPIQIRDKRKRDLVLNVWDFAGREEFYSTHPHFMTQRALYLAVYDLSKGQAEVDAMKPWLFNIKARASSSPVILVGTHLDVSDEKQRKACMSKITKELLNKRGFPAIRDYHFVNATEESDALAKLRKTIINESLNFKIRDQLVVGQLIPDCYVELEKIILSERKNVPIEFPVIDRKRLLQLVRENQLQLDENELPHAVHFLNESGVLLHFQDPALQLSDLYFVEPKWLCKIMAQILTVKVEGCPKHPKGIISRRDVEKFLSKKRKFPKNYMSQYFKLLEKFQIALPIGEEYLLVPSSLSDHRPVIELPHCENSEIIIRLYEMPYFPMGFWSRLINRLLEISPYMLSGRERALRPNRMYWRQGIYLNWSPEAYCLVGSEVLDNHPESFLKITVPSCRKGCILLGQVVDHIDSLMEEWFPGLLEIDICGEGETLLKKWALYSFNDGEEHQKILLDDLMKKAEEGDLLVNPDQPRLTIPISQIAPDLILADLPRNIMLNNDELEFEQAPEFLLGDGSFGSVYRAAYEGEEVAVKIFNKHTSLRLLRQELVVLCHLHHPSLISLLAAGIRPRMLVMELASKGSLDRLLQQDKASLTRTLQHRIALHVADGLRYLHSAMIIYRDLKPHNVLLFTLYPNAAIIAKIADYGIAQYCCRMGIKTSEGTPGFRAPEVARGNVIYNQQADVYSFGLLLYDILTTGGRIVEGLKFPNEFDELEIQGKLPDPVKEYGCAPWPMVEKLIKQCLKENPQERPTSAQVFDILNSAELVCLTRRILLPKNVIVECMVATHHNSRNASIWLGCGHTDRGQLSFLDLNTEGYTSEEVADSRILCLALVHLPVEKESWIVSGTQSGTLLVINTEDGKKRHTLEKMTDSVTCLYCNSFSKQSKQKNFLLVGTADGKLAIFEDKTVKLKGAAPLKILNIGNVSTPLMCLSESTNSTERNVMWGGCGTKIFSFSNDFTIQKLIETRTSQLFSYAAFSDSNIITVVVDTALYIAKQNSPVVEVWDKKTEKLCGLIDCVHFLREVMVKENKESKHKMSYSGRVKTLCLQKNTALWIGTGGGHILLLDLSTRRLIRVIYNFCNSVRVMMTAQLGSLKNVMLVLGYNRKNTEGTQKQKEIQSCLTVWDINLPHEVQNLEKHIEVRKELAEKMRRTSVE
T1 sequence (Q9UPZ9 whole entry): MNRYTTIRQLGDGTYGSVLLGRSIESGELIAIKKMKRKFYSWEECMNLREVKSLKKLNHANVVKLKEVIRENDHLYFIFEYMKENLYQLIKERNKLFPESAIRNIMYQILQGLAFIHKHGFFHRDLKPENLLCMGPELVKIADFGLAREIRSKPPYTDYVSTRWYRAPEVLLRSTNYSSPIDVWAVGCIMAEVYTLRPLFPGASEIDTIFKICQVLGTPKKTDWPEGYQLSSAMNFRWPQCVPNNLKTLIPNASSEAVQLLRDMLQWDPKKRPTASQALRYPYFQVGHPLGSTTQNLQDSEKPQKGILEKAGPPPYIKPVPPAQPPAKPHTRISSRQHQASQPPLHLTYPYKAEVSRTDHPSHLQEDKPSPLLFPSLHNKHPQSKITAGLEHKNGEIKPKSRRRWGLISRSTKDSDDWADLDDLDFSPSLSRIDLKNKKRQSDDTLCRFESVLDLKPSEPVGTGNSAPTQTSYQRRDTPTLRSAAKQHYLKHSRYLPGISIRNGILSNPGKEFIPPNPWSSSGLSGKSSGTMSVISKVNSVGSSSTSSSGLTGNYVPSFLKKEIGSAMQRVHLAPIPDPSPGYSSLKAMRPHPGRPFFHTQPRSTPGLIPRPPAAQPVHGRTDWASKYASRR

remaining activity at 0.3 µM [1, 21]: 96.8%
remaining activity at 0.3 µM [1, 22]: 96.2%
remaining activity at 0.3 µM [2, 21]: 93.7%
remaining activity at 0.3 µM [2, 22]: 92.5%
remaining activity at 0.3 µM [3, 21]: 88.2%
remaining activity at 0.3 µM [3, 22]: 86.9%
remaining activity at 0.3 µM [4, 21]: 102%
remaining activity at 0.3 µM [4, 22]: 101%
remaining activity at 0.3 µM [5, 21]: 95.1%
remaining activity at 0.3 µM [5, 22]: 93.2%
remaining activity at 0.3 µM [6, 21]: 60.3%
remaining activity at 0.3 µM [6, 22]: 55.8%
remaining activity at 0.3 µM [7, 21]: 97.1%
remaining activity at 0.3 µM [7, 22]: 94.6%
remaining activity at 0.3 µM [8, 21]: 30.6%
remaining activity at 0.3 µM [8, 22]: 29.7%
remaining activity at 0.3 µM [9, 21]: 99.8%
remaining activity at 0.3 µM [9, 22]: 97.2%
remaining activity at 0.3 µM [10, 21]: 55.8%
remaining activity at 0.3 µM [10, 22]: 55.5%
remaining activity at 0.3 µM [11, 21]: 81%
remaining activity at 0.3 µM [11, 22]: 79.4%
remaining activity at 0.3 µM [12, 21]: 90.2%
remaining activity at 0.3 µM [12, 22]: 87.9%
remaining activity at 0.3 µM [13, 21]: 90.6%
remaining activity at 0.3 µM [13, 22]: 89.2%
remaining activity at 0.3 µM [14, 21]: 108%
remaining activity at 0.3 µM [14, 22]: 105%
remaining activity at 0.3 µM [15, 21]: 97.1%
remaining activity at 0.3 µM [15, 22]: 95.8%
remaining activity at 0.3 µM [16, 21]: 108%
remaining activity at 0.3 µM [16, 22]: 105%
remaining activity at 0.3 µM [17, 21]: 90.8%
remaining activity at 0.3 µM [17, 22]: 87.6%
remaining activity at 0.3 µM [18, 21]: 85.8%
remaining activity at 0.3 µM [18, 22]: 80.9%
remaining activity at 0.3 µM [19, 21]: 8.89%
remaining activity at 0.3 µM [19, 22]: 8.22%
remaining activity at 0.3 µM [20, 21]: 82.3%
remaining activity at 0.3 µM [20, 22]: 81.7%
SMILES: COc1cc(N2CCN(C)CC2)c(C)cc1Nc1ncc(Br)c(Nc2cccnc2N(C)C)n1 [TP-5801]
